The results in this text go back to ChEMBL document CHEMBL5584308, “Total Synthesis and Anti-inflammatory Activity of Asperjinone and Asperimide C” (J Nat Prod, 2024).

Activity calls are given as the source filed them. The rule behind the calls is not given here.

The subject of series [1] is RPTEC. Put plainly: Antiinflammatory activity in LPS-induced human RPTEC cells assessed as decrease in IL-1beta gene expression at 28 uM incubated for 24 hrs by qPCR analysis relative to control. It is filed as functional. Details: scale not given: the % may be the effect or the level left.
Series [2] concerns RPTEC. Put plainly: Antiinflammatory activity against LPS-induced human RPTEC cells assessed as reduction in COX-2 gene expression at 28 uM incubated for 24 hrs by qPCR analysis relative to control. Details: scale not given: the % may be the effect or the level left. It is filed as functional. A general note: In qPCR the cycle at which signal appears reflects the starting amount.

The subject of series [3] is RPTEC. Briefly: Antiinflammatory activity in LPS-induced human RPTEC cells assessed as decrease in IL6 gene expression at 28 uM incubated for 24 hrs by qPCR analysis relative to control. Format: functional. Also on record: scale not given: the % may be the effect or the level left.
In series [4] the test system is RPTEC. Put plainly: Antiinflammatory activity in LPS-induced human RPTEC cells assessed as downregulation of TNFalpha gene expression at 28 uM incubated for 24 hrs by qPCR analysis relative to control. Format: functional.
The subject of series [5] is RPTEC. Briefly: Effect on COX-2 gene expression in human RPTEC cells at 28 uM incubated for 24 hrs by qPCR analysis. It is filed as functional, cell-based.
Series [6] in a line: Downregulation of TNF-alpha gene expression in human RPTEC cells at 28 uM incubated for 24 hrs by qPCR analysis relative to control. It is filed as functional.
In series [7] the test system is RPTEC. Put plainly: Antiinflammatory activity against LPS-induced human RPTEC cells assessed as reduction in nitrite level at 28 uM incubated for 24 hrs by microplate reader analysis relative to control. Format: functional. Also on record: scale not given: the % may be the effect or the level left.
The test system of series [8] is RPTEC. Put plainly: Effect on nitrate level in LPS-induced human RPTEC cells at 28 uM incubated for 24 hrs by microplate reader analysis. Format: functional, cell-based.
The next series has as its system RAW264.7. Briefly: Inhibition of NO production in LPS-induced mouse RAW264.7 cells incubated for 24 hrs by absorbance based assay. Particulars: RAW264.7, 24 h. Format: functional, cell-based.
Series [9] concerns RPTEC. Put plainly: Antiinflammatory activity against LPS-induced human RPTEC cells assessed as reduction in iNOS gene expression at 28 uM incubated for 24 hrs by qPCR analysis relative to control. Also on record: scale not given: the % may be the effect or the level left. Format: functional.
The subject of series [10] is RPTEC. Put plainly: Antiinflammatory activity in LPS-induced human RPTEC cells assessed as decrease in IL6 gene expression at 26 uM incubated for 24 hrs by qPCR analysis relative to control. Also on record: scale not given: the % may be the effect or the level left. Format: functional.
Series [11] concerns RPTEC. Put plainly: Antiinflammatory activity in LPS-induced human RPTEC cells assessed as decrease in IL-1beta gene expression at 26 uM incubated for 24 hrs by qPCR analysis relative to control. Format: functional. Details: scale not given: the % may be the effect or the level left.
Series [12] deals with RPTEC. Briefly: Effect on nitrate level in human RPTEC cells at 26 uM incubated for 24 hrs by microplate reader analysis. It is filed as functional, cell-based.
The test system of series [13] is RPTEC. Put plainly: Effect on iNOS gene expression in human RPTEC cells at 26 uM incubated for 24 hrs by qPCR analysis. Format: functional, cell-based.
Series [14] relates to RPTEC. Briefly: Effect on total NO level in human RPTEC cells at 26 uM incubated for 24 hrs by microplate reader analysis. Format: functional, cell-based.
In series [15] the test system is RPTEC. Put plainly: Effect on nitrite level in human RPTEC cells at 26 uM incubated for 24 hrs by microplate reader analysis. Format: functional, cell-based.
For series [16], the system named is RPTEC. Put plainly: Antiinflammatory activity against LPS-induced human RPTEC cells assessed as reduction in iNOS gene expression at 26 uM incubated for 24 hrs by qPCR analysis relative to control. It is filed as functional. Also on record: scale not given: the % may be the effect or the level left.
In series [17] the test system is RPTEC. Put plainly: Antiinflammatory activity against LPS-induced human RPTEC cells assessed as reduction in total NO level at 26 uM incubated for 24 hrs by microplate reader analysis relative to control. It is filed as functional. Also on record: scale not given: the % may be the effect or the level left.
Series [18] concerns RPTEC. Put plainly: Cytotoxicity against human RPTEC cells assessed as reduction in cell viability at 26 uM incubated for 24 hrs in presence of LPS by MTT assay. Format: toxicity, cell-based.
In series [19] the test system is RPTEC. Briefly: Antiinflammatory activity in LPS-induced human RPTEC cells assessed as downregulation of TNFalpha gene expression at 26 uM incubated for 24 hrs by qPCR analysis relative to control. Format: functional.
For series [20], the system named is RPTEC. Put plainly: Effect on nitrate level in LPS-induced human RPTEC cells at 26 uM incubated for 24 hrs by microplate reader analysis. Format: functional, cell-based.
Series [21] has as its system RPTEC. Put plainly: Antiinflammatory activity against LPS-induced human RPTEC cells assessed as reduction in nitrite level at 26 uM incubated for 24 hrs by microplate reader analysis relative to control. Format: functional. Also on record: scale not given: the % may be the effect or the level left.
Series [22] concerns RPTEC. Put plainly: Effect on IL-6 gene expression in human RPTEC cells at 26 uM incubated for 24 hrs by qPCR analysis. It is filed as functional, cell-based.
Series [23] concerns RPTEC. Put plainly: Cytotoxicity against human RPTEC cells assessed as reduction in cell viability at 26 uM incubated for 24 hrs in absence of LPS by MTT assay. Format: toxicity, cell-based. A general note: Formazan colour is commonly taken as a measure of viable cells.
Series [24] concerns RPTEC. Put plainly: Antiinflammatory activity against LPS-induced human RPTEC cells assessed as reduction in COX-2 gene expression at 26 uM incubated for 24 hrs by qPCR analysis relative to control. It is filed as functional. Details: scale not given: the % may be the effect or the level left.
Series [25] relates to RPTEC. Put plainly: Effect on IL-1beta gene expression in human RPTEC cells at 26 uM incubated for 24 hrs by qPCR analysis. Format: functional, cell-based.
Series [26] relates to RPTEC. Put plainly: Effect on COX-2 gene expression in human RPTEC cells at 26 uM incubated for 24 hrs by qPCR analysis. It is filed as functional, cell-based.
Series [27] can be described thus: Downregulation of IL-1beta gene expression in human RPTEC cells at 26 uM incubated for 24 hrs by qPCR analysis relative to control. It is filed as functional.
Series [28] is described as follows: Downregulation of COX-2 gene expression in human RPTEC cells at 26 uM incubated for 24 hrs by qPCR analysis relative to control. It is filed as functional.
The nature of series [29]: Downregulation of TNF-alpha gene expression in human RPTEC cells at 26 uM incubated for 24 hrs by qPCR analysis relative to control. It is filed as functional.
Series [30] deals with RPTEC. Briefly: Upregulation of IL-1beta gene expression in human RPTEC cells at 26 uM incubated for 24 hrs by qPCR analysis. It is filed as functional, cell-based.
Series [31] concerns RPTEC. Briefly: Upregulation of IL-6 gene expression in human RPTEC cells at 26 uM incubated for 24 hrs by qPCR analysis. It is filed as functional, cell-based.
Series [32] concerns RPTEC. Briefly: Upregulation of COX-2 gene expression in human RPTEC cells at 26 uM incubated for 24 hrs by qPCR analysis. Format: functional, cell-based.

A word on the IC50: it is the concentration that inhibits the measured activity by half. As to `COc1ccc2c(c1)c(CC(=O)O)c(C)n2C(=O)c1ccc(Cl)cc1` [INDOMETHACIN], the Activity in the series with RPTEC [1] is recorded as 56%; with RPTEC [2], 61%; in the series with RPTEC [3] it was 57%; in the series with RPTEC [4] it was 64%; in series [6], around 38%; with RPTEC [7], 45%. Also, the Activity in the series on RPTEC [9] is 59%. For the same compound, the outcome in the series on RPTEC [5] and in the series on RPTEC [8] was inactive. The compound also yielded an IC50 in the series with RAW264.7 of 37.5 µM.
In the case of `CC1(C)Oc2ccc(CC3=C(c4ccc(O)cc4)C(=O)OC3=O)cc2C[C@@H]1O`, the Activity in the series on RPTEC [10] was 48%; in the series with RPTEC [11], 52%; in the series with RPTEC [16], 47%; in the series with RPTEC [17] it was around 33%; in the series on RPTEC [18], “Non-Toxic”; with RPTEC [19], 57%. For the same compound, the Activity in the series on RPTEC [21] is reported as 45%; with RPTEC [23], “Non-Toxic”; in the series on RPTEC [24], 49%. The outcome in the series with RPTEC [12], in the series on RPTEC [13], in the series with RPTEC [14], in the series with RPTEC [15], with RPTEC [20] and in the series with RPTEC [22] was inactive. Besides, the outcome in the series with RPTEC [25] and in the series with RPTEC [26] was inactive.
As for `CC1(C)Oc2ccc(CC3=C(c4ccc(O)cc4)C(=O)OC3=O)cc2CC1O` (stereo not given), the Activity with RPTEC [10] is 55%; in the series with RPTEC [11], 61%; in series [27] it was 24%; in [28], around 20%; in series [29], around 38%; in the series with RPTEC [16], 67%. For the same compound, the Activity in the series with RPTEC [17] is around 35%; in the series with RPTEC [18] it was “Non-Toxic”; in the series on RPTEC [19] it was 67%; in the series on RPTEC [21] it was 45%; in the series on RPTEC [23], “Non-Toxic”; in the series with RPTEC [24] it was 61%. In addition, the result with RPTEC [12], in the series on RPTEC [13], in the series on RPTEC [14], in the series on RPTEC [15], in the series with RPTEC [20] and in the series with RPTEC [22] was inactive.
On to `CC1(C)Oc2ccc(CC3=C(c4ccc(O)cc4)C(=O)NC3=O)cc2C[C@@H]1O`, for which the Activity in the series with RPTEC [10] was 39%; in the series with RPTEC [11], 52%; in the series with RPTEC [16] it was 52%; in the series on RPTEC [17], around 18%; in the series on RPTEC [18], “Non-Toxic”; with RPTEC [19] it was 58%. For the same compound, the Activity with RPTEC [21] is on record as 24%; with RPTEC [23] it was “Non-Toxic”; in the series with RPTEC [24] it was 52%. Besides, the result in the series with RPTEC [12], with RPTEC [13], in the series with RPTEC [14], in the series on RPTEC [15], with RPTEC [20] and in the series on RPTEC [22] was inactive. Besides, the outcome in the series on RPTEC [25] and in the series on RPTEC [26] was inactive. Further, the IC50 in the series on RAW264.7 worked out at 0.78 µM.
Turning to `CC1(C)Oc2ccc(CC3=C(c4ccc(O)cc4)C(=O)NC3=O)cc2CC1O` (racemic), the Activity with RPTEC [10] is 44%; in the series with RPTEC [11] it was 52%; in the series with RPTEC [16], 57%; in the series on RPTEC [17] it was around 37%; in the series on RPTEC [18], “Non-Toxic”; in the series on RPTEC [19], 44%. In addition, the values for the Activity in the series with RPTEC [21], in the series on RPTEC [23] and in the series on RPTEC [24] were 45%, “Non-Toxic” and 53%, respectively. For the same compound, the result with RPTEC [30], in the series on RPTEC [31] and in the series with RPTEC [32] was Active. Besides, the outcome with RPTEC [12], in the series on RPTEC [13], with RPTEC [14], in the series with RPTEC [15] and in the series with RPTEC [20] was inactive.
